According to patent US20250099528A1, “ORAL COMPOSITION” (Toyo Shinyaku Co., Ltd., priority 2023, published 2025):

System: Caco-2 cells
Experiment: Leucine permeability test using Caco-2 cells
Type: in vitro ADME, Human
Conditions: Caco-2 insert wells, luminal to basolateral side, culture two hours, L-leucine 0.131 mg/mL, HPLC
Method: To assess the action of promoting free amino acid absorption of a dark-green vegetable, leucine permeability was measured by a test using Caco-2 cells. The following materials were used as test substances. • (1) As a dark-green vegetable, crushed powder of young barley grass (containing 43% by weight of dietary fiber; manufactured by TOYO SHINYAKU Co., Ltd.) which was obtained by washing grass harvested before heading, then cutting, drying, and then crushing was used. The crushed powder of young barley grass in an amount of 24 mg was put into a tube, and after adding 1 mL of a buffer, the mixture was vortexed. Then, the supernatant was collected through centrifugation at 15,000×g for five minutes at room temperature. […] When the medium was changed before the addition of the samples, the medium outside the insert wells (the wells at the basolateral side) was replaced with 1000 μl of 10% FBS-DMEM, and the medium inside the insert wells (the wells at the luminal side) was replaced with 350 μl of 10% FBS-DMEM. • (5) The electrical resistance values were measured with Millicell ERS-2, and the wells having a value of 1000Ω or more were used. […] The leucine concentrations of the obtained concentrated liquids were measured with high performance liquid chromatography. The measurement results were applied to the equation below, and thus the leucine permeability was calculated. […]

- Leucine Permeability (%): 1.32%
SMILES: CC(C)C[C@H](N)C(=O)O [Comparative Example 1, L-leucine]
